This passage reports EC50 and IC50 results from patent publication US20230391772A1, “METHODS AND COMPOSITIONS FOR TARGETED PROTEIN DEGRADATION” (Ranok Therapeutics (Hangzhou) Co. Ltd., priority 2020, published 2023).

Usually EC50 stands for the midpoint of the concentration-response curve.

Experiment [1] concerns MIA PaCa-2 human pancreatic carcinoma. Put plainly: MIA PaCa-2 CCK-8 proliferation assay. Format: cell-based. The following applies: Homo sapiens, MIA PaCa-2, 72 h, MIA PaCa-2 cells. As for the experimental part: The following cancer cell lines were employed: BT-474 human breast carcinoma (ATCC, #HTB-20); MIA PaCa-2 human pancreatic carcinoma [2 copies KRAS(G12C)](ATCC, #CRL-1420); NCI-H23 human non-small cell lung cancer [1 copy KRAS(G12C)](ATCC, #CRL-5800); NCI-H358 human non-small cell lung cancer [1 copy KRAS(G12C)](ATCC, #CRL-5807); LU65A human lung carcinoma (Pharmaron, Beijing, China). Cell lines were cultured essentially according to ATCC and Pharmaron recommendations.
Cancer Cell Line Proliferation (CCK-8) Assays
3-fold serial dilutions of each test compound were prepared ranging from 20 μM to 1.02 nM.
% Inhibition=100−(D−B)/(S−B)*100%. • S: Absorbance of cells treated with DMSO • D: Absorbance of compound-treated cells • B: Absorbance of medium with DMSO without cells
For orientation: Tetrazolium assays rely on reduction of a dye to a coloured formazan, in cell work by metabolically active cells.

For another experiment, the target named is KRAS(G12C) (Homo sapiens, UniProt P01116, G12C). As to the kind of experiment: KRAS(G12C)/SOS1 homogeneous time-resolved fluorescence (HTRF) assay. More on the design: purchased Cisbio 63ADK000CB16PEG. The following applies: absence of GTP, 4° C. for 3 hr, read-out: KRAS (G12C) binding. As for the experimental part: KRAS(G12C)/SOS1 Homogeneous Time-Resolved Fluorescence (HTRF) Assay
KRAS(G12C), sequence (P01116 1-188 isoform P01116-2 G12C): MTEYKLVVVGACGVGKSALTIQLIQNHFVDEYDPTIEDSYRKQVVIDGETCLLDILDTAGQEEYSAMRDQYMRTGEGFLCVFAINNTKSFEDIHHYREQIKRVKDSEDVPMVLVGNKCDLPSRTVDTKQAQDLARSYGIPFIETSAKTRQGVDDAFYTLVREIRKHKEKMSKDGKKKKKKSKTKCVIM
Binding of test compounds to KRAS(G12C) protein, which in turn blocks KRAS(G12C) interaction with the SOS1 protein, was measured in the absences of GTP by homogeneous time-resolved fluorescence (HTRF) using the KRAS-G12C/SOS1 Binding Assay Kit (Cisbio, #63ADK000CB16PEG), following the manufacturer's instructions, except as noted. 3-fold serial dilutions of each test compound were prepared ranging from […] to 1.02 nM. The test compound was mixed and incubated with reaction components, incubated in a sealed plate at 4° C. for 3 hr and fluorescence was measured using a PerkinElmer Envision plate reader.
In general terms: TR-FRET usually uses a lanthanide donor and a delayed reading to cut background.

A further experiment addresses T1, HSP90a protein (Homo sapiens, UniProt P07900).
T1 construct: purchased BPS Bioscience 50298
As to the kind of experiment: HSP90α-binding fluorescent polarization (FP) assay, BODIPY-labeled RNK04010 probe. The following applies: FP competition with RNK04010 (BODIPY-labeled), 5 nM, 300 min at 25° C. How it is done:
HSP90α-Binding Fluorescent Polarization (FP) Assay
Binding of test compounds to HSP90a protein was measured by fluorescent polarization (FP) using the HSP90a (N-terminal) Assay Kit (BPS Bioscience, #50298), following the manufacturer's instructions, except as noted. Fluorescently labeled HSP90-binding compounds, either the provided FITC-geldanamycin (5 nM final concentration) or RNK04010, a triazolone-based HSP90 binding small molecule labeled with BODIPY through a piperizine-phenyl linker (5 nM final concentration) were employed. A 2.5-fold serial dilution of each test compound ranging from 20 μM to 5.2 nM was assayed for binding to HSP90a. After the final step of adding HSP90a protein to each assay well, plates were mixed by brief shaking, incubated at 25° C. for 120 min for FITC-geldanamycin or 300 min for RNK04010, and fluorescence was measured using a PerkinElmer EnVision Plate Reader.

As for `C=CC(=O)N1CCN(c2nc(OCC3CN(C(=O)C4CCN(Cc5ccc(-n6c(O)nnc6-c6cc(C(C)C)c(O)cc6O)cc5)CC4)C3)nc3c2CCN(c2cccc4cccc(Cl)c24)C3)C[C@@H]1CC#N` [Compound 188, (S)-2-(1-acryloyl-4-(7-(8-chloronaphthalen-1-yl)-2-((1-(1-(4-(3-(2,4-dihydroxy-5-isopropylphenyl)-5-hydroxy-4H-1,2,4-triazol-4-yl)benzyl)piperidine-4-carbonyl)azetidin-3-yl)methoxy)-5,6,7,8-tetrahydropyrido[3,4-d]pyrimidin-4-yl)piperazin-2-yl)acetonitrile, trifluoroacetic acid], the EC50 in experiment [1] lay in the range of 0.1 to 1 µM. For the same compound, the IC50 is above 1 µM on KRAS(G12C) and below 0.1 µM on HSP90a protein.

Regarding `C=CC(=O)N1CCN(c2nc(OC[C@@H]3CCN3C(=O)C3CCN(Cc4ccc(-n5c(O)nnc5-c5cc(C(C)C)c(O)cc5O)cc4)CC3)nc3c2CCN(c2cccc4cccc(Cl)c24)C3)C[C@@H]1CC#N` [Compound 189, 2-((S)-1-acryloyl-4-(7-(8-chloronaphthalen-1-yl)-2-(((S)-1-(1-(4-(3-(2,4-dihydroxy-5-isopropylphenyl)-5-hydroxy-4H-1,2,4-triazol-4-yl)benzyl)piperidine-4-carbonyl)azetidin-2-yl)methoxy)-5,6,7,8-tetrahydropyrido[3,4-d]pyrimidin-4-yl)piperazin-2-yl)acetonitrile, trifluoroacetic acid], in experiment [1], the half-maximal effective concentration (EC50) was above 1 µM. For the same compound, the IC50 at KRAS(G12C) is above 1 µM; on HSP90a protein it was below 0.1 µM.

`C=CC(=O)N1CCN(c2nc(OC[C@@H]3C[C@@H](NC(=O)C4CCN(Cc5ccc(-n6c(C(N)=O)nnc6-c6cc(C(C)C)c(O)cc6O)cc5)CC4)CN3C)nc3c2CCN(c2cccc4cccc(Cl)c24)C3)C[C@@H]1CC#N` [Compound 194, N-((3R,5S)-5-(((4-((S)-4-acryloyl-3-(cyanomethyl)piperazin-1-yl)-7-(8-chloronaphthalen-1-yl)-5,6,7,8-tetrahydropyrido[3,4-d]pyrimidin-2-yl)oxy)methyl)-1-methylpyrrolidin-3-yl)-1-(4-(3-carbamoyl-5-(2,4-dihydroxy-5-isopropylphenyl)-4H-1,2,4-triazol-4-yl)benzyl)piperidine-4-carboxamide] had an EC50 in experiment [1] of 0.1 to 1 µM. In addition, the IC50 was 0.1 to 1 µM at KRAS(G12C) and below 0.1 µM on HSP90a protein.

Take `C=CC(=O)N1CCN(c2nc(OCCN3CCN(C(=O)c4ccc(-n5c(O)nnc5-c5cc(C(C)C)c(O)cc5O)cc4)CC3)nc3c2CCN(c2cccc4cccc(Cl)c24)C3)C[C@@H]1CC#N` [Compound 195, (S)-2-(1-acryloyl-4-(7-(8-chloronaphthalen-1-yl)-2-(2-(4-(4-(3-(2,4-dihydroxy-5-isopropylphenyl)-5-hydroxy-4H-1,2,4-triazol-4-yl)benzoyl)piperazin-1-yl)ethoxy)-5,6,7,8-tetrahydropyrido[3,4-d]pyrimidin-4-yl)piperazin-2-yl)acetonitrile, trifluoroacetic acid]: in experiment [1], the half-maximal effective concentration (EC50) was above 1 µM. The IC50 at KRAS(G12C) is above 1 µM; on HSP90a protein, below 0.1 µM.

In experiment [1], `C=CC(=O)N1CCN(c2nc(OC[C@@H]3C[C@@H](NC(=O)c4ccc(-n5c(O)nnc5-c5cc(C(C)C)c(O)cc5O)cc4)CN3C)nc3c2CCN(c2cccc4cccc(Cl)c24)C3)C[C@@H]1CC#N` [Compound 196, N-((3R,5S)-5-(((4-((S)-4-acryloyl-3-(cyanomethyl)piperazin-1-yl)-7-(8-chloronaphthalen-1-yl)-5,6,7,8-tetrahydropyrido[3,4-d]pyrimidin-2-yl)oxy)methyl)-1-methylpyrrolidin-3-yl)-4-(3-(2,4-dihydroxy-5-isopropylphenyl)-5-hydroxy-4H-1,2,4-triazol-4-yl)benzamide, trifluoroacetic acid] gave a half-maximal effective concentration (EC50) above 1 µM. Further, the IC50 at KRAS(G12C) is 0.1 to 1 µM; at HSP90a protein, below 0.1 µM.

`C=CC(=O)N1CCN(c2nc(OC[C@@H]3CN(C(=O)C4CCN(Cc5ccc(-n6c(C(N)=O)nnc6-c6cc(C(C)C)c(O)cc6O)cc5)CC4)CCN3C)nc3c2CCN(c2cccc4cccc(Cl)c24)C3)C[C@@H]1CC#N` [Compound 197, 4-(4-((4-((S)-3-(((4-((S)-4-acryloyl-3-(cyanomethyl)piperazin-1-yl)-7-(8-chloronaphthalen-1-yl)-5,6,7,8-tetrahydropyrido[3,4-d]pyrimidin-2-yl)oxy)methyl)-4-methylpiperazine-1-carbonyl)piperidin-1-yl)methyl)phenyl)-5-(2,4-dihydroxy-5-isopropylphenyl)-4H-1,2,4-triazole-3-carboxamide, trifluoroacetic acid] showed an EC50 in experiment [1] above 1 µM. The results for the IC50 on KRAS(G12C) and at HSP90a protein were above 1 µM and below 0.1 µM, respectively.

In turn, `C=CC(=O)N1CCN(c2nc(OC[C@@H]3C[C@@H](NC(=O)C4CCN(Cc5ccc(-n6c(O)nnc6-c6cc(C)c(O)cc6O)cc5)CC4)CN3C)nc3c2CCN(c2cccc4cccc(Cl)c24)C3)C[C@@H]1CC#N` [Compound 198, N-((3R,5S)-5-(((4-((S)-4-acryloyl-3-(cyanomethyl)piperazin-1-yl)-7-(8-chloronaphthalen-1-yl)-5,6,7,8-tetrahydropyrido[3,4-d]pyrimidin-2-yl)oxy)methyl)-1-methylpyrrolidin-3-yl)-1-(4-(3-(2,4-dihydroxy-5-methylphenyl)-5-hydroxy-4H-1,2,4-triazol-4-yl)benzyl)piperidine-4-carboxamide, trifluoroacetic acid] registered a concentration for a half-maximal effect (EC50) in experiment [1] of 0.1 to 1 µM. Moreover, the IC50 at KRAS(G12C) is 0.1 to 1 µM; at HSP90a protein it was below 0.1 µM.

On to `C=CC(=O)N1CCN(c2nc(OC[C@@H]3C[C@@H](NC(=O)C4CCN(Cc5ccc(-n6c(C(=O)NCC(F)(F)F)nnc6-c6cc(C(C)C)c(O)cc6O)cc5)CC4)CN3C)nc3c2CCN(c2cccc4cccc(Cl)c24)C3)C[C@@H]1CC#N` [Compound 200, N-((3R,5S)-5-(((4-((S)-4-acryloyl-3-(cyanomethyl)piperazin-1-yl)-7-(8-chloronaphthalen-1-yl)-5,6,7,8-tetrahydropyrido[3,4-d]pyrimidin-2-yl)oxy)methyl)-1-methylpyrrolidin-3-yl)-1-(4-(3-(2,4-dihydroxy-5-isopropylphenyl)-5-((2,2,2-trifluoroethyl)carbamoyl)-4H-1,2,4-triazol-4-yl)benzyl)piperidine-4-carboxamide], for which the EC50 in experiment [1] is below 0.1 µM. Moreover, the IC50 on KRAS(G12C) and on HSP90a protein was below 0.1 µM throughout.

In experiment [1], `C=CC(=O)N1CCN(c2nc(OC[C@@H]3C[C@@H](NC(=O)C4CCN(Cc5ccc(-n6c(C(=O)NCCN7CCN(C)CC7)nnc6-c6cc(C(C)C)c(O)cc6O)cc5)CC4)CN3C)nc3c2CCN(c2cccc4cccc(Cl)c24)C3)C[C@@H]1CC#N` [Compound 201, N-((3R,5S)-5-(((4-((S)-4-acryloyl-3-(cyanomethyl)piperazin-1-yl)-7-(8-chloronaphthalen-1-yl)-5,6,7,8-tetrahydropyrido[3,4-d]pyrimidin-2-yl)oxy)methyl)-1-methylpyrrolidin-3-yl)-1-(4-(3-(2,4-dihydroxy-5-isopropylphenyl)-5-((2-(4-methylpiperazin-1-yl)ethyl)carbamoyl)-4H-1,2,4-triazol-4-yl)benzyl)piperidine-4-carboxamide] yielded an EC50 above 1 µM. The IC50 at KRAS(G12C) is 0.1 to 1 µM; at HSP90a protein it was below 0.1 µM.

On to `C=CC(=O)N1CCN(c2nc(OCCN3CCN(C4CCN(Cc5ccc(-n6c(O)nnc6-c6cc(C)c(O)cc6O)cc5)CC4)CC3)nc3c2CCN(c2cccc4cccc(Cl)c24)C3)C[C@@H]1CC#N` [Compound 267, (S)-2-(1-acryloyl-4-(7-(8-chloronaphthalen-1-yl)-2-(2-(4-(1-(4-(3-(2,4-dihydroxy-5-methylphenyl)-5-hydroxy-4H-1,2,4-triazol-4-yl)benzyl)piperidin-4-yl)piperazin-1-yl)ethoxy)-5,6,7,8-tetrahydropyrido[3,4-d]pyrimidin-4-yl)piperazin-2-yl)acetonitrile], for which the half-maximal effective concentration (EC50) in experiment [1] is above 1 µM. The IC50 at KRAS(G12C) is below 0.1 µM.
